Assay results taken from patent publication US11453703B2, “Heterotandem bicyclic peptide complexes” (BicycleTX Limited, priority 2018, dated 2022).
pEC50, pKd: −log10 of the molar value.

Legend:
CD137 [1] = molecular target: T1, CD137 (Homo sapiens, UniProt Q07011); test: CD137 reporter assay, co-culture with EphA2 tumour cells; format: cell-based; set-up: host or cells: Jurkat reporter cells; conditions: tumour target EphA2, co-culture with SC-OV-3, 6 h
Outline: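 Jurkat CD137 reporter cells co-cultured with tumour cells and serially diluted test articles in RPMI-1640 + 1% FBS, 6 h at 37 °C, 5% CO2. Luminescence read after Bio-Glo; fold change over cells-only background fitted log(agonist) vs response for EC50 (nM) and maximal fold induction.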

CD137 [2] = molecular target: T1, CD137; test: CD137 Biacore (SPR) binding assay; set-up: purchased R&D systems; conditions: biotinylated human CD137, 25° C.
Experimental: Biacore experiments were performed to determine ka (M^−1s^−1), kd (s^−1), KD (nM) values of heterotandem peptides binding to human CD137 protein. […] The protein was desalted to remove uncoupled biotin using spin columns into PBS.
For analysis of peptide binding, a Biacore T200 or a Biacore 3000 instrument was used with a XanTec CMD500D chip. Streptavidin was immobilized on the chip using standard amine-coupling chemistry at 25° C. with HBS-N (10 mM HEPES, 0.15 M NaCl, pH 7.4) as the running buffer. Briefly, the carboxymethyl dextran surface was activated with a 7 min injection of a 1:1 ratio of 0.4 M 1-ethyl-3-(3-dimethylaminopropyl) carbodiimide hydrochloride (EDC)/0.1 M N-hydroxy succinimide (NHS) at a flow rate of 10 μl/min. For capture of streptavidin, the protein was diluted to 0.2 mg/ml in 10 mM sodium acetate (pH 4.5) and captured by injecting 120 μl of onto the activated chip surface. Residual activated groups were blocked with a 7 min injection of 1 M ethanolamine (pH 8.5) and biotinylated CD137 captured to a level of 270-1500 RU. Buffer was changed to PBS/0.05% Tween 20 and a dilution series of the peptides was prepared in this buffer with a final DMSO concentration of 0.5%. The top peptide concentration was 500 nM with 6 further 2-fold or 3-fold dilutions. The SPR analysis was run at 25° C. at a flow rate of 90 μl/min with 60 seconds association and 900 seconds dissociation. After each cycle a regeneration step (10 μl of 10 mM glycine pH 2) was employed. Data were corrected for DMSO excluded volume effects as needed. All data were double-referenced for blank injections and reference surface using standard processing procedures and data processing and kinetic fitting were performed using Scrubber software, version 2.0c (BioLogic Software). Data were fitted using simple 1:1 binding model allowing for mass transport effects where appropriate.

human EphA2 protein = human EphA2 protein (Homo sapiens, UniProt P29317); test: EphA2 Biacore (SPR) binding assay; conditions: biotinylated human EphA2, 25° C.
Chain of human EphA2 protein (P29317 24-976): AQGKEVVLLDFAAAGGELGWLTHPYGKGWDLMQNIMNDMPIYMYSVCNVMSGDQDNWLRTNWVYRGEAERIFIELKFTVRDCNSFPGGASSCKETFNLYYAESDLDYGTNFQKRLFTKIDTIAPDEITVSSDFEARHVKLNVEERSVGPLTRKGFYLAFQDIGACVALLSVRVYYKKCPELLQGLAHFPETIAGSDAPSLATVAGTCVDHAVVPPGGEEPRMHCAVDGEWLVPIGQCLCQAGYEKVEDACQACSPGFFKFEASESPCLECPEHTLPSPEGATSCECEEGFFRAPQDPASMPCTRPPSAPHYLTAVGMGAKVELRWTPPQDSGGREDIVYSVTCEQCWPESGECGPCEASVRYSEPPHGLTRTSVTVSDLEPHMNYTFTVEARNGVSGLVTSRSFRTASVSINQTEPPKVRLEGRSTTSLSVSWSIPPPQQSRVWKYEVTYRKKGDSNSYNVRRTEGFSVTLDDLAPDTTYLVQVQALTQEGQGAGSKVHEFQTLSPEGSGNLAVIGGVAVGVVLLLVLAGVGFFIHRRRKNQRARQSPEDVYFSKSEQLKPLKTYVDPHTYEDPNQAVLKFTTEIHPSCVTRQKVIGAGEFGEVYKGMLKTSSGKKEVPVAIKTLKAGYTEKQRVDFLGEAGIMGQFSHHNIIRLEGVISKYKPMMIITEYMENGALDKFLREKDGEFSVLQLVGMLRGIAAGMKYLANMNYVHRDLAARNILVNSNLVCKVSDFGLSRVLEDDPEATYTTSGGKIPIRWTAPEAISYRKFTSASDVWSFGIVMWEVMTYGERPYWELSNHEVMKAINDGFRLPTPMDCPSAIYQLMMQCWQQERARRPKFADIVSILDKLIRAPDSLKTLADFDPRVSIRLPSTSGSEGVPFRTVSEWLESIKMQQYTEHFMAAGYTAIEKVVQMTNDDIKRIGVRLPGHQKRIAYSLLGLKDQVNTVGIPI
Experimental: Biacore experiments were performed to determine ka (M^−1s^−1), kd (s^−1), KD (nM) values of heterotandem peptides binding to human EphA2 protein.
EphA2 were biotinylated with EZ-Link™ Sulfo-NHS-LC-Biotin for 1 hour in 4 mM sodium acetate, 100 mM NaCl, pH 5.4 with a 3× molar excess of biotin over protein. The degree of labelling was determined using a Fluorescence Biotin Quantification Kit (Thermo) after dialysis of the reaction mixture into PBS. For analysis of peptide binding, a Biacore T200 instrument was used with a XanTec CMD500D chip. Streptavidin was immobilized on the chip using standard amine-coupling chemistry at 25° C. with HBS-N (10 mM HEPES, 0.15 M NaCl, pH 7.4) as the running buffer. Briefly, the carboxymethyl dextran surface was activated with a 7 min injection of a 1:1 ratio of 0.4 M 1-ethyl-3-(3-dimethylaminopropyl) carbodiimide hydrochloride (EDC)/0.1 M N-hydroxy succinimide (NHS) at a flow rate of 10 it/min. For capture of streptavidin, the protein was diluted to 0.2 mg/ml in 10 mM sodium acetate (pH 4.5) and captured by injecting 120 μl onto the activated chip surface. Residual activated groups were blocked with a 7 min injection of 1 M ethanolamine (pH 8.5):HBS-N (1:1). Buffer was changed to PBS/0.05% Tween 20 and biotinylated EphA2 was captured to a level of 500-1500 RU using a dilution of protein to 0.2 μM in buffer. A dilution series of the peptides was prepared in this buffer with a final DMSO concentration of 0.5% with a top peptide concentration was 50 or 100 nM and 6 further 2-fold dilutions. The SPR analysis was run at 25° C. at a flow rate of 90 μl/min with 60 seconds association and 900-1200 seconds dissociation. Data were corrected for DMSO excluded volume effects. All data were double-referenced for blank injections and reference surface using standard processing procedures and data processing and kinetic fitting were performed using Scrubber software, version 2.0c (BioLogic Software). Data were fitted using simple 1:1 binding model allowing for mass transport effects where appropriate.

T1 sequence (Q07011 24-255): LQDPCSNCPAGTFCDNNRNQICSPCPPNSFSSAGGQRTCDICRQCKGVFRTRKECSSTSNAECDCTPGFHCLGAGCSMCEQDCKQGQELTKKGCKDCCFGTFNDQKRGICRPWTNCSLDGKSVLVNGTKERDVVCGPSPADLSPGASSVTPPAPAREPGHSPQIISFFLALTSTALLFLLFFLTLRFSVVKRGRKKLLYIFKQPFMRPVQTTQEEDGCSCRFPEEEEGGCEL

| Compound | pEC50 (CD137 [1]) | Fold Induction over Background (CD137 [1]) [fold] | pKd (CD137 [2]) | pKd (human EphA2 protein) |
| --- | --- | --- | --- | --- |
| CCCC[C@@H]1NC(=O)[C@H](Cc2ccc(O)cc2)NC(=O)[C@@H]2CCCN2C(=O)[C@H](CC(=O)O)NC(=O)[C@H](C)NC(=O)[C@H](Cc2ccccc2)NC(=O)[C@@H]2CSCCC(=O)N3CN(CN(C3)C(=O)CCSC[C@@H](C(=O)N[C@@H](CNC(=O)CCc3cn(CCCNC(=O)CN(C)C(=O)CN(C)C(=O)CN(C)C(=O)CN(C)C(=O)CN(C)C(=O)CCOCCOCCOCCOCCOCCOCCOCCOCCOCCOCCOCCOCCOCCOCCOCCNC(=O)NCCC(=O)N(C)CC(=O)N(C)CC(=O)N(C)CC(=O)N(C)CC(=O)N(C)CC(=O)N(C)CC(=O)N(C)CC(=O)N(C)CC(=O)N(C)CC(=O)N(C)CC(=O)N[C@@H](C)C(=O)N[C@@H](CCCCNC(=N)N)C(=O)N[C@@H](CC(=O)O)C(=O)N[C@H]4CSCCC(=O)N5CN6CN(C5)C(=O)CCSC[C@H](NC(=O)[C@H](CC(C)C)NC(=O)[C@@H]5CCCN5C(=O)[C@H](CC(N)=O)NC(=O)[C@H](C(C)C)NC(=O)[C@H](CC(C)C)NC(=O)[C@@H]5C[C@@H](O)CN5C4=O)C(=O)N[C@@H](CC(C)C)C(=O)N[C@@H](Cc4c[nH]cn4)C(=O)N4CCC[C@H]4C(=O)N[C@H](CC(=O)O)C(=O)N[C@@H](Cc4c[nH]c5ccccc45)C(=O)N[C@@H](CCCCNC(=N)N)C(=O)N[C@H](C(N)=O)CSCCC6=O)nn3)C(N)=O)NC1=O)C(=O)CCSC[C@H](NC(=O)[C@H](C)NC(C)=O)C(=O)N[C@@H]([C@@H](C)CC)C(=O)N[C@@H](CCC(=O)O)C(=O)N[C@@H](CCC(=O)O)C(=O)NCC(=O)N[C@@H](CCC(N)=O)C(=O)N[C@@H](Cc1ccc(O)cc1)C(=O)N2 [BCY9655] | 8.39 | 6 | 6.70 | 8.88 |
| CCCC[C@@H]1NC(=O)[C@H](Cc2ccc(O)cc2)NC(=O)[C@@H]2CCCN2C(=O)[C@H](CC(=O)O)NC(=O)[C@H](C)NC(=O)[C@H](Cc2ccccc2)NC(=O)[C@@H]2CSCCC(=O)N3CN(CN(C3)C(=O)CCSC[C@@H](C(=O)N[C@@H](CNC(=O)CCc3cn(CCCNC(=O)CN(C)C(=O)CN(C)C(=O)CN(C)C(=O)CN(C)C(=O)CN(C)C(=O)CN(C)C(=O)CN(C)C(=O)CN(C)C(=O)CN(C)C(=O)CN(C)C(=O)COCCOCCOCCOCCOCCOCCOCCOCCOCCOCCNC(=O)NCCC(=O)N(C)CC(=O)N(C)CC(=O)N(C)CC(=O)N(C)CC(=O)N(C)CC(=O)N(C)CC(=O)N(C)CC(=O)N(C)CC(=O)N(C)CC(=O)N(C)CC(=O)N[C@@H](C)C(=O)N[C@@H](CCCCNC(=N)N)C(=O)N[C@@H](CC(=O)O)C(=O)N[C@H]4CSCCC(=O)N5CN6CN(C5)C(=O)CCSC[C@H](NC(=O)[C@H](CC(C)C)NC(=O)[C@@H]5CCCN5C(=O)[C@H](CC(N)=O)NC(=O)[C@H](C(C)C)NC(=O)[C@H](CC(C)C)NC(=O)[C@@H]5C[C@@H](O)CN5C4=O)C(=O)N[C@@H](CC(C)C)C(=O)N[C@@H](Cc4c[nH]cn4)C(=O)N4CCC[C@H]4C(=O)N[C@H](CC(=O)O)C(=O)N[C@@H](Cc4c[nH]c5ccccc45)C(=O)N[C@@H](CCCCNC(=N)N)C(=O)N[C@H](C(N)=O)CSCCC6=O)nn3)C(N)=O)NC1=O)C(=O)CCSC[C@H](NC(=O)[C@H](C)NC(C)=O)C(=O)N[C@@H]([C@@H](C)CC)C(=O)N[C@@H](CCC(=O)O)C(=O)N[C@@H](CCC(=O)O)C(=O)NCC(=O)N[C@@H](CCC(N)=O)C(=O)N[C@@H](Cc1ccc(O)cc1)C(=O)N2 [BCY9656] | 8.96 | 3 | 6.80 | 9.12 |
| CCCC[C@@H]1NC(=O)[C@H](Cc2ccc(O)cc2)NC(=O)[C@@H]2CCCN2C(=O)[C@H](CC(=O)O)NC(=O)[C@H](C)NC(=O)[C@H](Cc2ccccc2)NC(=O)[C@@H]2CSCCC(=O)N3CN(CN(C3)C(=O)CCSC[C@@H](C(=O)N[C@@H](CNC(=O)CCc3cn(CCCNC(=O)CN(C)C(=O)CN(C)C(=O)CN(C)C(=O)CN(C)C(=O)CN(C)C(=O)CN(C)C(=O)CN(C)C(=O)CN(C)C(=O)CN(C)C(=O)CN(C)C(=O)CN(C)C(=O)CN(C)C(=O)CN(C)C(=O)CN(C)C(=O)CN(C)C(=O)COCCOCCOCCOCCOCCNC(=O)NCCC(=O)N(C)CC(=O)N(C)CC(=O)N(C)CC(=O)N(C)CC(=O)N(C)CC(=O)N(C)CC(=O)N(C)CC(=O)N(C)CC(=O)N(C)CC(=O)N(C)CC(=O)N[C@@H](C)C(=O)N[C@@H](CCCCNC(=N)N)C(=O)N[C@@H](CC(=O)O)C(=O)N[C@H]4CSCCC(=O)N5CN6CN(C5)C(=O)CCSC[C@H](NC(=O)[C@H](CC(C)C)NC(=O)[C@@H]5CCCN5C(=O)[C@H](CC(N)=O)NC(=O)[C@H](C(C)C)NC(=O)[C@H](CC(C)C)NC(=O)[C@@H]5C[C@@H](O)CN5C4=O)C(=O)N[C@@H](CC(C)C)C(=O)N[C@@H](Cc4c[nH]cn4)C(=O)N4CCC[C@H]4C(=O)N[C@H](CC(=O)O)C(=O)N[C@@H](Cc4c[nH]c5ccccc45)C(=O)N[C@@H](CCCCNC(=N)N)C(=O)N[C@H](C(N)=O)CSCCC6=O)nn3)C(N)=O)NC1=O)C(=O)CCSC[C@H](NC(=O)[C@H](C)NC(C)=O)C(=O)N[C@@H]([C@@H](C)CC)C(=O)N[C@@H](CCC(=O)O)C(=O)N[C@@H](CCC(=O)O)C(=O)NCC(=O)N[C@@H](CCC(N)=O)C(=O)N[C@@H](Cc1ccc(O)cc1)C(=O)N2 [BCY9657] | 8.05 | 26 | 6.59 | 8.96 |
| CCCC[C@@H]1NC(=O)[C@H](Cc2ccc(O)cc2)NC(=O)[C@@H]2CCCN2C(=O)[C@H](CC(=O)O)NC(=O)[C@H](C)NC(=O)[C@H](Cc2ccccc2)NC(=O)[C@@H]2CSCCC(=O)N3CN(CN(C3)C(=O)CCSC[C@@H](C(=O)N[C@@H](CNC(=O)CCc3cn(CCCNC(=O)CN(C)C(=O)CN(C)C(=O)CN(C)C(=O)CN(C)C(=O)CN(C)C(=O)COCCOCCOCCOCCOCCNC(=O)NCCC(=O)N(C)CC(=O)N(C)CC(=O)N(C)CC(=O)N(C)CC(=O)N(C)CC(=O)N(C)CC(=O)N(C)CC(=O)N(C)CC(=O)N(C)CC(=O)N(C)CC(=O)N[C@@H](C)C(=O)N[C@@H](CCCCNC(=N)N)C(=O)N[C@@H](CC(=O)O)C(=O)N[C@H]4CSCCC(=O)N5CN6CN(C5)C(=O)CCSC[C@H](NC(=O)[C@H](CC(C)C)NC(=O)[C@@H]5CCCN5C(=O)[C@H](CC(N)=O)NC(=O)[C@H](C(C)C)NC(=O)[C@H](CC(C)C)NC(=O)[C@@H]5C[C@@H](O)CN5C4=O)C(=O)N[C@@H](CC(C)C)C(=O)N[C@@H](Cc4c[nH]cn4)C(=O)N4CCC[C@H]4C(=O)N[C@H](CC(=O)O)C(=O)N[C@@H](Cc4c[nH]c5ccccc45)C(=O)N[C@@H](CCCCNC(=N)N)C(=O)N[C@H](C(N)=O)CSCCC6=O)nn3)C(N)=O)NC1=O)C(=O)CCSC[C@H](NC(=O)[C@H](C)NC(C)=O)C(=O)N[C@@H]([C@@H](C)CC)C(=O)N[C@@H](CCC(=O)O)C(=O)N[C@@H](CCC(=O)O)C(=O)NCC(=O)N[C@@H](CCC(N)=O)C(=O)N[C@@H](Cc1ccc(O)cc1)C(=O)N2 [BCY9658] | 8.21 | 11 | 6.82 | 8.72 |
